Experimental data: PMC11505038, “Kalata B1 Enhances Temozolomide Toxicity to Glioblastoma Cells” (Biomedicines, 2024)

How the values were obtained:
[1] = Human serum stability assay (UPLC-MS); details: 37 °C
Procedure: Established protocols were used to analyze peptide stability in human serum isolated from male AB plasma (Sigma-Aldrich). Briefly, thawed plasma was centrifuged for 10 min at 15,000× g to concentrate lipids. The supernatant was carefully removed with a Pasteur pipette and incubated for 15 min at 37 °C, 5% CO2. […] Controls were synthetic Kalata B1 or TMZ in PBS that were incubated in parallel with human serum test compounds. Serum proteins were denatured with urea (final concentration of 3M) at 4 °C for 10 min., at each time point. Afterwards, trichloroacetic acid (7% final v/v) was added for 10 min to precipitate the proteins. Each sample was centrifuged for 10 min at 15,000× g; the supernatant was removed an evaluated in triplicate using UPLC-MS.
We conducted peptide stability assays in human serum isolated from male AB plasma and then analyzed with UPLC-MS. Synthetic Kalata B1 and TMZ were incubated with human serum and the portion of the peptide remaining was quantified by calculating the area of the respective elution peak in UPLC-MS, compared to the control.
Percentage of Kalata B1 and TMZ remaining upon incubation with human serum. The portion of serum-treated peptide remaining was determined by calculating the area of the respective elution peak in UPLC-MS and comparing it with the control without incubation. Data points are means ± SEM.

[2] = tested on: U-87 MG glioblastoma cells; assay: MTT co-exposure of synthetic Kalata B1 and TMZ in U-87 MG cells; type: cell-based, human; details: TMZ 100 µM + synthetic Kalata B1 0.5 µM, MTT 72 h, ANOVA/Tukey
Procedure: To calculate TMZ IC50 values in each cell line, TMZ was dissolved in DMSO at a stock concentration of 103 mM, which was then diluted into culture medium on the day of use, with the DMSO final concentration always less than 0.1%. The following concentrations of TMZ were used in the experiments: 0.5, 5, 50, 500, 2500, 5000 μM. The media were sterilized for each treatment media with a 0.22 μm filter before they were added to cell cultures. […]
In accordance with the methods developed by Mosmann and colleagues, the MTT assay was conducted using the Roche cell proliferation kit (Cat. No. 11465007001). […] The MTT is originally a yellow tetrazolium salt that undergoes a colorimetric change to purple formazan crystals, and the change in absorbance can be measured as an indicator of cell viability/proliferation. […]
Figure 8 Synthetic Kalata B1 increased TMZ-induced cell death in U-87 MG glioblastoma cultures. To determine if synthetic Kalata B1 (K) enhances TMZ (T)-induced cell death in U-87 MG cells, MTT was measured after incubating the cell cultures with concentrations of K (0.5, 1.0, 2.0, and 4.0 μM) and T (100, 200, 400, and 800 μM) both alone and when co-exposed to synthetic Kalata B1 and TMZ as illustrated in panels (A–M). […] Cell viability was measured using MTT and expressed as a percentage of control cultures (culture medium with DMSO only). […]

[3] = tested on: U-87 MG human glioblastoma cells; assay: cells; details: read-out: IC50 (μM) ± S.D.; U-87 MG, MTT, 72 h, 6000 cells/well, cyclotides 0.1-10 μM, TMZ 0.5-5000 μM, best fit nonlinear regression, triplicate wells, n = 3
Procedure: (§1) SH-SY5Y human neuroblastoma cells (population doubling (PD) 20−24), T-98G, and U-87 MG human glioblastoma cells were removed from cryogenic storage, thawed rapidly in a water bath (37 °C) and reconstituted in 75 cm^2 flasks. For SH-SY5Y, the following media were used: Dulbecco’s modified Eagle’s medium/Nutrient F12 Ham (Sigma-Aldrich, Cat. No. D8437) containing 10% heat-inactivated fetal bovine serum, 4 mM L-glutamine, 100 U/mL penicillin, and 100 μg/mL streptomycin. For U-87 MG and T-98G Eagle’s minimal essential medium (ATCC: The Global Bioresource Center, Cat. No. ATCC 30-2003), containing 10% heat-inactivated fetal bovine serum, 4 mM L-glutamine, 100 U/mL penicillin, and 100 μg/mL streptomycin were used.
(§2) Cells were incubated at 37 °C in a humidified atmosphere of 5% CO2 and 95% air until recovered and ready for passaging (approximately 4 days). At between 80% and 90% confluence, the cells were trypsinized with warm (37 °C) sterile 0.5% Trypsin-EDTA (Thermo Fisher, Cat. No. 15400054) and passaged into 175 cm^2 flasks, where they were left to multiply until they reached 80−90% confluence. To plate cells: cultures were trypsinized, resuspended in 20 mL sterile PBS, counted using a cell counter (Olympus cell counter model R1), and plated in 96-well plates at an optimal density of 6000 cells/well in the designated culture media. The cells were left to adhere overnight before treatment the following day, when the culture medium was removed and replaced with the treatment medium. All incubations were conducted in triplicate wells and repeated at least three times (n = 3).
(§3) To calculate TMZ IC50 values in each cell line, TMZ was dissolved in DMSO at a stock concentration of 103 mM, which was then diluted into culture medium on the day of use, with the DMSO final concentration always less than 0.1%. The following concentrations of TMZ were used in the experiments: 0.5, 5, 50, 500, 2500, 5000 μM. The media were sterilized for each treatment media with a 0.22 μm filter before they were added to cell cultures. To determine the IC50 values for each cyclotide in each cell type, cyclotides were dissolved into 10% DMSO and then dilutions used to screen cyclotides with a final DMSO concentration of less than 0.1% The following concentrations of cyclotides were used: 0.1, 1, 5, 10 μM. For co-exposure experiments, a simultaneous exposure of cyclotide and TMZ at each respective dose was added to cell cultures (100 μL final volume per well).
(§4) In accordance with the methods developed by Mosmann and colleagues, the MTT assay was conducted using the Roche cell proliferation kit (Cat. No. 11465007001). Briefly, cells that are active can cleave MTT. The MTT is originally a yellow tetrazolium salt that undergoes a colorimetric change to purple formazan crystals, and the change in absorbance can be measured as an indicator of cell viability/proliferation. For these experiments, cells were plated into 96-well flat-bottom plates, as described in the cell culture above. […] To align with our previous work, experiments were conducted with a 72 h time frame for cytotoxicity evaluation.
(§5) After a 72 h incubation period, plates were removed from the incubator and 10 µL of MTT was added to each well. The plates were returned to the incubator for an additional 4 h, after which 100 µL of a solubilization solution was added to each well. The plates were returned to incubation overnight, and the next day absorbances were read at 570 nm on a Molecular Devices FlexStation 3 using SoftMax Pro Microplate Data Acquisition and Analysis Software (version 7.0.2).

[4] = tested on: T-98G human glioblastoma cells; assay: cells; details: read-out: IC50 (μM) ± S.D.; T-98G, MTT, 72 h, 6000 cells/well, best fit nonlinear regression, triplicate wells, n = 3
Procedure: as §1, §2, §3, §4, §5

glioblastoma cells = details: cytotoxicity; ref Our previous research; cited from earlier work
U-87 MG cells = details: U-87 MG; cited from earlier work
mice = details: cited from earlier work
Text: (§6) The development of an in vivo mouse model is vital, yet it requires expertise, significant finances, and large quantities of the target cyclotide. […] A mouse model of anaplastic large cell lymphoma (ALCL) was developed, and the Kalata B1 mutant, named [T20K] Kalata B1, decreased tumor weight and increased ...

U-87 glioblastoma cells = details: MTT; cited from earlier work
[5] = tested on: primary human brain endothelial cells; details: SYTOX green assay; cited from earlier work
Text: Challenges commonly associated with treating cancer can include low drug uptake across the cellular lipid bilayer, the activity of pumps, such as p-glycoprotein, that efflux drugs out of the cell, and the impenetrability of the blood–brain barrier. Our previous research provided supporting evidence that cyclotides such as CyO2 can act as adjuvants in drug-resistant breast cancer cells, whereby cyclotides sensitize human breast adenocarcinoma (MCF-7) and drug-resistant human breast adenocarcinoma (MCF-7/ADR) cells to the FDA-approved anti-cancer drug, doxorubicin. In that case, one ...

U-251 glioblastoma cells = details: MTT; cited from earlier work
[6] = tested on: anaplastic large cell lymphoma (ALCL); details: mouse model of anaplastic large cell lymphoma; cited from earlier work
Text: as §6

interleukin-2 (IL-2) = details: cited from earlier work
Text: Although a mechanistic evaluation of Kalata B1 bioactivity was beyond the scope of this research, a brief discussion of the previous mechanistic studies is justified. For instance, Henriques and colleagues provided supporting evidence that cyclotides can target phosphatidylethanolamine (PE)-enriched phospholipids and penetrate the cell via both endocytosis and membrane translocation.

Compound: CC(C)C[C@@H]1NC(=O)CNC(=O)[C@H](CC(N)=O)NC(=O)[C@H](CCCNC(=N)N)NC(=O)[C@H]([C@@H](C)O)NC(=O)[C@@H]2CSSC[C@@H]3NC(=O)[C@H]([C@@H](C)O)NC(=O)CNC(=O)CNC(=O)[C@H](C(C)C)NC(=O)[C@@H]4CSSC[C@H](NC(=O)[C@H]([C@@H](C)O)NC(=O)[C@H](CSSC[C@H](NC(=O)[C@H](C(C)C)NC(=O)[C@@H]5CCCN5C1=O)C(=O)NCC(=O)N[C@@H](CCC(=O)O)C(=O)N[C@@H]([C@@H](C)O)C(=O)N4)NC(=O)CNC(=O)[C@@H]1CCCN1C(=O)[C@H]([C@@H](C)O)NC(=O)[C@H](CC(N)=O)NC3=O)C(=O)N[C@@H](CO)C(=O)N[C@@H](Cc1c[nH]c3ccccc13)C(=O)N1CCC[C@H]1C(=O)N[C@@H](C(C)C)C(=O)N2 [Kalata B1 (synthetic), Kalata B1]
- Stability in human serum (in words) ([1]; data points of 3 h, 8 h and 24 h, human serum from male AB plasma, 300 µM stock diluted 10 times, UPLC-MS peak area vs control, triplicate, listed as synthetic Kalata B1): remains stable
- Time for which the peptide remains stable in human serum ([1]; human serum isolated from male AB plasma, UPLC-MS): at least 24 h
- Fold lower TMZ concentration than TMZ IC50 still giving significant cytotoxicity on co-exposure [2]: 16 fold
- IC50 [3]: 5.4 ± 1.06 µM
- IC50 [4]: 2.6 ± 0.24 µM

Compound: Cycloviolacin O2 [CyO2]
- IC50 (glioblastoma cells): 4500 nM
- Fold less TMZ required for significant cell death on co-exposure with the cyclotide (U-87 MG cells): 8 fold
- In vivo toxicity at 1.5 mg/kg (mice; mice treated with 1.5 mg/kg in tumor mouse models): no signs of discomfort
- In vivo toxicity, single injection at 2 mg/kg (mice; mice, single injection 2 mg/kg): lethal
- IC50 (U-87 glioblastoma cells): 450 nM
- Membrane disruption [5]: did not produce significant membrane disruption
- IC50 (U-251 glioblastoma cells): 790 nM

Compound: [T20K] Kalata B1: a Kalata B1 mutant (cyclo(GLPVCGETCVGGTCNTPGCKCSWPVCTRN); disulfide (positions not given here); ends not checked; also: disulfides, places not given here; UniProt P56254 89-117, looked up, variant T20K)
- Anti-tumor effect in ALCL mouse model [6]: decreased tumor weight and increased apoptosis
- Effect on IL-2 expression, IL-2 cytokine secretion and IL-2 gene expression (interleukin-2 (IL-2)): could decrease
